Source: US12378193B2, “Anti-arrhythmicity agents” (The Regents of the University of California, priority 2014, dated 2025)

How the values were obtained:
[1] = tested on: Zebrafish tremblor mutant; test: Zebrafish screening: soaking; type: in vivo; details: for Soaking: % Rescued: Table 1, tremblor mutants, 20 μM; for Rescue percent: Table 2, tremblor mutant soaked in 20 μM test compounds
Experimental: (§1) We screened our above mention library by using tremblor mutants Zebrafish embryos. […] Compounds were screened for their ability to suppress cardiac fibrillation and/or restore rhythmic synchronized contraction. Briefly, we treated the embryo by soaking in 20 μM solution or injecting compounds after 24 hours fertilization and observed the phenotype after 48 hours. Further, we determined the structure-activity relationship (SAR) between the active compound's structures and the ability to suppress cardiac fibrillation and/or restore rhythmic synchronized contraction.
Zebrafish tremblor mutant eggs were collected after fertilization, and arrayed in 24-well plates (20 twenty embryos/well) in 500 μL buffer. After 24 hour fertilization in 29° C., 20 μM testing compound was added and using E3 buffer as background control. After 48 hour fertilization in 29° C., phenotypic changes were observed using a high magnification dissecting microscope.

[2] = tested on: Zebrafish tremblor mutant; test: Zebrafish screening: injection into tremblor mutants; type: in vivo; details: for Injection into tremblor Mutants: % Rescued: Table 1; for Average rescue ratio: Table 4, over all screens
Experimental: as §1
(§2) Zebrafish tremblor mutant eggs were collected at 1 cell stages. 1 nL of compound in Daneu's buffer were injected into the embryo. After 24 hours the embryo was arrayed in 24-well plates (20 twenty embryos/well) in 500 μL buffer. After 48 hour fertilization in 29° C., phenotypic changes were observed using a high magnification dissecting microscope.

[3] = tested on: Zebrafish embryo injected with morpholino to NCX1h; test: Zebrafish screening: injection with morpholino to NCX1h; type: in vivo; details: for Injection with Morpholino: % Rescued: Table 1; for Rescue percent: Table 3, morpholino mutants
Experimental: as §1
as §2, with “Zebrafish” for “Zebrafish tremblor mutant”, “buffer and 1 nL of morpholino (1 mM) to NCX1h was” for “buffer were”

VDAC2 = test: Affinity bead pull down from zebrafish embryo lysate with mass spectrometry; type: binding; details: zebrafish embryonic lysate, affinity agarose beads
Experimental: For pull down assays mono-N-Boc protected 2,2′-(ethylenedioxy)bis(ethylamine) was attached to the carboxylic ester of efsevin and its derivatives through the amide bond. After removal of the Boc group using TFA, the primary amine was coupled to the carboxylic acid of Affi-Gel 10 Gel (Biorad). Two-day-old zebrafish embryos were deyolked by centrifugation before being lysed with Rubinfeld's lysis buffer (Rubinfeld et al., 1993, Science 262, 1731-1734). The lysate was precleaned by incubation with Affi-Gel 10 Gel to eliminate non-specific binding. Precleaned lysate was incubated with affinity beads overnight. Proteins were eluted from the affinity beads and separated on SDS-PAGE. Protein bands of interest were excised. Gel plugs were dehydrated in acetonitrile (ACN) and dried completely in a Speedvac. Samples were reduced and alkylated with 10 mM dithiotreitol and 10 mM TCEP solution in 50 mM NH4HCO3 (30 min at 56° C.) and 100 mM iodoacetamide (45 min in dark), respectively. Gel plugs were washed with 50 mM NH4HCO3, dehydrated with ACN, and dried down in a Speedvac. Gel pieces were then swollen in digestion buffer containing 50 mM NH4HCO3, and 20.0 ng/μL of chymotrypsin (25° C., overnight). Peptides were extracted with 0.1% TFA in 50% ACN solution, dried down and resuspended in LC buffer A (0.1% formic acid, 2% ACN).
Extracted peptides were analyzed by nano-flow LC/MS/MS on a Thermo Orbitrap with dedicated Eksigent nanopump using a reversed phase column (New Objective). The flow rate was 200 nL/min for separation: mobile phase A contained 0.1% formic acid, 2% ACN in water, and mobile phase B contained 0.1% formic acid, 20% water in ACN. The gradient used for analyses was linear from 5% B to 50% B over 60 min, then to 95% B over 15 min, and finally keeping constant 95% B for 10 min. Spectra were acquired in data-dependent mode with dynamic exclusion where the instrument selects the top six most abundant ions in the parent spectra for fragmentation. […]

NCX1hMO injected embryos = test: Restoration of coordinated cardiac contractions in NCX1h morpholino embryos; type: in vivo, zebrafish; details: linker-attached compounds
Experimental: (§3) VDAC2 mRNA and morpholino antisense oligos (5′-[…]-3′) (Genetools) (SEQ ID NO: 9) were injected into one-cell stage embryos collected from crosses of tre^tc318 heterozygotes. Cardiac performance was analyzed by visual inspection on 1 dpf. The tre mutant embryos were identified either by observing the fibrillation phenotype at 2-3 dpf or by genotyping as previously described (Langenbacher et al., 2005).
(§4) Chemicals from a synthetic library (Castellano et al., 2007, J Am Chem Soc 129, 5843-5845; Choi et al., 2011, Development 138, 1173-1181; Cruz et al., 2011, Proc Natl Acad Sci USA 108, 6769-6774) and from Biomol International LP were screened for their ability to partially or completely restore persistent heartbeat in tre embryos. 12 embryos collected from crosses of tre^tc318 heterozygotes were raised in the presence of individual compounds at a concentration of 10 μM from 4 hpf (Choi et al., 2011). Cardiac function was analyzed by visual inspection at 1 and 2 dpf. The hearts of tre^tc318 embryos manifest a chaotic movement resembling cardiac fibrillation with intermittent contractions in rare occasion (Ebert et al., 2005; Langenbacher et al., 2005). Compounds that elicit persistent coordinated cardiac contractions were validated on large number of tre mutant embryos and NCX1h morphants (>500 embryos).

[4] = tested on: zebrafish tremblor (tre) embryos; test: Restoration of coordinated cardiac contractions in tre embryos; type: in vivo; details: tremblor embryos
Experimental: as §3, §4

[5] = Defibrillator activity of efsevin enantiomers
[6] = Table 4, injection into tremblor mutants

| Compound | Injection into tremblor Mutants: % Rescued [2] | Screen 1 Rescue percent [2, 6] | Average rescue ratio [2] | Injection with Morpholino: % Rescued [3] | Rescue percent [3] | further results |
| --- | --- | --- | --- | --- | --- | --- |
| CCOC(=O)C1=CCN(S(=O)(=O)c2ccc(C)cc2)C1c1ccc(C(=O)OCC)cc1 (racemic) [F7-I-A06] | – | – | – | – | – | Soaking: % Rescued [1]: 17/88%; Rescue percent [1]: 88% |
| CCOC(=O)C1=CCN(S(=O)(=O)c2ccc(C)cc2)C1c1cccc(C)c1 (racemic) [F7-I-B12] | – | – | – | – | – | Soaking: % Rescued [1]: 19/78%; Rescue percent [1]: 78% |
| CCOC(=O)C1=CCN(S(=O)(=O)c2ccccc2C)C1c1ccc(F)cc1 (racemic) [F7-I-G04] | 26/85% | 78% | 85% | 8/75% | 75% | Screen 2 Rescue percent [2, 6]: 88% |
| CCOC(=O)C1=CCN(S(=O)(=O)c2ccc(Cl)cc2)C1c1ccc(Br)cc1 (racemic) [F7-I-H05] | 43/74% | 86% | 74% | 8/88% | 88% | Screen 2 Rescue percent [2, 6]: 69%; Screen 3 Rescue percent [2, 6]: 75% |
| CCOC(=O)C1=CCN(S(=O)(=O)c2ccc(F)cc2)C1c1ccc(F)cc1 (racemic) [F7-II-A01] | 27/74% | 74% | 74% | 8/38% | 38% | – |
| CCOC(=O)C1=CCN(S(=O)(=O)c2ccc(Cl)cc2)C1c1ccccc1 (racemic) [F7-II-A11] | 30/73% | 73% | 73% | 6/0% | 0% | – |
| CCOC(=O)C1=CCN(S(=O)(=O)c2ccc(F)cc2)C1c1ccccc1 (racemic) [F7-II-B01] | 21/81% | 91% | 81% | 6/67% | 67% | Screen 2 Rescue percent [2, 6]: 79% |
| CCOC(=O)C1=CCN(S(=O)(=O)c2ccc(C)cc2)C1c1ccccc1 (racemic) [F7] | – | – | – | – | – | Rescue percent [1]: 72% |
| CCOC(=O)C1=CCN(S(=O)(=O)c2ccccc2F)C1c1ccc(Br)cc1 (racemic) [Formula Im] | – | – | – | 8/88% | – | – |
| CCOC(=O)C1=CCN(S(C)(=O)=O)C1c1ccccc1 (racemic) [OK-C19] | – | – | – | – | – | pull down of the 32 kD band (VDAC2) (VDAC2): not detected; restoration of rhythmic contractions in NCX1hMO injected embryos (NCX1hMO injected embryos): unable to induce rhythmic contraction; restoration of rhythmic contractions in tremblor embryos [4]: failed to rescue the tremblor phenotype |
| CCOC(=O)C1=CCN(S(=O)(=O)c2cccc(F)c2)C1c1ccc(F)cc1 (racemic) [OK-C125] | – | – | – | – | – | pull down of the 32 kD band (VDAC2) (VDAC2): pulled down; restoration of rhythmic contractions in NCX1hMO injected embryos (NCX1hMO injected embryos): retained their ability to restore rhythmic contractions; restoration of rhythmic contractions in tremblor embryos [4]: restored rhythmic contractions in the majority of tremblor embryos |
| CCOC(=O)C1=CCN(S(=O)(=O)c2ccc(C)cc2)[C@@H]1c1ccccc1 [(R)-Efsevin] | – | – | – | – | – | defibrillator activity of efsevin: active enantiomer [5]: Active Antipode |
| Cc1ccc(S(=O)(=O)N2CC=C(C(=O)O)C2c2ccccc2)cc1 (stereo not drawn) [F7 acid] | – | – | – | – | – | Rescue percent [1]: 21% |
| CCOC(=O)C1=CCN(S(=O)(=O)c2ccc(C)cc2)C1c1ccc(F)cc1 (stereo not drawn) [F7-I-B04] | – | – | – | – | – | Soaking: % Rescued [1]: 8/75%; Rescue percent [1]: 75% |
| CCOC(=O)C1=CCN(S(=O)(=O)c2ccc(Cl)cc2)C1c1ccc(Cl)cc1 (stereo not drawn) [F7-I-B07] | – | – | – | – | – | Soaking: % Rescued [1]: 18/80%; Rescue percent [1]: 80% |
| CCOC(=O)C1=CCN(S(=O)(=O)c2ccc(F)cc2)C1c1ccc(Cl)c(Cl)c1 (stereo not drawn) [F7-I-F05] | 10/80% | 80% | 80% | 14/50% | 50% | – |
| CCOC(=O)C1=CCN(S(=O)(=O)c2ccc(F)cc2)C1c1cccc(C)c1 (stereo not drawn) [F7-I-F09] | 15/87% | 87% | 87% | 8/75% | 75% | – |
| CCOC(=O)C1=CCN(S(=O)(=O)c2cccc(Cl)c2)C1c1cccc(Cl)c1 (stereo not drawn) [F7-I-F11] | 28/79% | 80% | 79% | 8/88% | 88% | Screen 2 Rescue percent [2, 6]: 78% |
| CCOC(=O)C1=CCN(S(=O)(=O)c2ccccc2Br)C1c1ccc(Cl)cc1 (stereo not drawn) [F7-I-G09] | 23/87% | 78% | 78% | 6/67% | 67% | – |
| CCOC(=O)C1=CCN(S(=O)(=O)c2ccccc2F)C1c1ccc(Cl)cc1 (stereo not drawn) [F7-I-H01] | 12/83% | 83% | 83% | 8/63% | 63% | – |
| CCOC(=O)C1=CCN(S(=O)(=O)c2cccc(F)c2)C1c1ccc(F)cc1 (stereo not drawn) [F7-II-B12] | 21/76% | 76% | 76% | – | – | – |
| CCOC(=O)C1=CCN(S(=O)(=O)c2ccccc2F)C1c1ccc(F)cc1 (stereo not drawn) [Formula In] | – | – | – | 8/88% | – | – |
| CCOC(=O)C1=CCN(S(=O)(=O)c2ccccc2F)C1c1ccc(C)cc1 (stereo not drawn) [Formula Io] | – | – | – | 8/75% | – | – |
